# Test results as given in US20220411380A1, “ACID ADDITION SALT OF RORy REGULATOR” (JIANGSU HENGRUI MEDICINE CO., LTD., priority 2019, published 2022).
# How the values were obtained:
# Type in all cases: physicochemical
# [1] = Long-term/accelerated stability study of crystalline form α of hydrochloride and crystalline form I of hydrobromide
# Protocol: The crystalline form α of the hydrochloride of the compound of formula II was let stand in conditions of 25° C./60% RH and 40° C./75% RH to examine its stability.
# The crystalline form I of the hydrobromide of the compound of formula II was let stand in conditions of 25° C./60% RH and 40° C./75% RH to examine its stability.
# [2] = DVS (dynamic vapor sorption) characterization
# Protocol: DVS refers to dynamic vapor sorption: The measurement was conducted with a Surface Measurement Systems advantage 2 at 25° C., starting from 50% humidity in humidity range of 0%-95% with a step size of 10%. The judging criterion was that the mass change of each gradient dM/dT is less than 0.002 and TMAX is less than 360 min in two circles.
# [3] = Influencing factor study of crystalline form α of hydrochloride and crystalline form I of hydrobromide
# Protocol: Sample of the crystalline form α of the hydrochloride and the crystalline form I of the hydrobromide of the compound of formula II were let stand open to examine the stability of the samples in conditions of illumination (4500 Lux), high temperature (40° C. and 60° C.) and high humidity (RH 75% and RH 92.5%) in a period of 30 days.
structure (smiles),measurement,setting,value
Br.NC(=O)C[C@H](c1ccc(S(=O)(=O)CC2CC2)cc1)c1nc2cc(-c3ccccc3OC(F)F)c(Cl)cc2[nH]1,Chiral purity (%),"[1]; 25° C., 60% RH, Day 7",99.297%
same,Color and appearance,"[1]; 25° C., 60% RH, Day 7",White solid
same,Crystalline form,"[1]; 25° C., 60% RH, Day 7",Not changed
same,Main peak purity (%),"[1]; 25° C., 60% RH, Day 7",97.689%
same,Chiral purity (%),"[1]; 25° C., 60% RH, Day 14",99.198%
same,Color and appearance,"[1]; 25° C., 60% RH, Day 14",White solid
same,Crystalline form,"[1]; 25° C., 60% RH, Day 14",Not changed
same,Main peak purity (%),"[1]; 25° C., 60% RH, Day 14",97.697%
same,Bromide ion content (%),"[1]; 25° C., 60% RH, Month 1",11.20%
same,Chiral purity (%),"[1]; 25° C., 60% RH, Month 1",99.255%
same,Color and appearance,"[1]; 25° C., 60% RH, Month 1",White solid
same,Crystalline form,"[1]; 25° C., 60% RH, Month 1",Not changed
same,Main peak purity (%),"[1]; 25° C., 60% RH, Month 1",97.649%
same,Bromide ion content (%),"[1]; 25° C., 60% RH, Month 2",11.05%
same,Chiral purity (%),"[1]; 25° C., 60% RH, Month 2",99.363%
same,Color and appearance,"[1]; 25° C., 60% RH, Month 2",White solid
same,Crystalline form,"[1]; 25° C., 60% RH, Month 2",Not changed
same,Main peak purity (%),"[1]; 25° C., 60% RH, Month 2",97.661%
same,Chiral purity (%),"[1]; 25° C., 60% RH, Month 3",99.283%
same,Color and appearance,"[1]; 25° C., 60% RH, Month 3",White solid
same,Crystalline form,"[1]; 25° C., 60% RH, Month 3",Not changed
same,Main peak purity (%),"[1]; 25° C., 60% RH, Month 3",97.552%
same,Bromide ion content (%),"[1]; 25° C., 60% RH, Month 6",11.82%
same,Chiral purity (%),"[1]; 25° C., 60% RH, Month 6",99.228%
same,Color and appearance,"[1]; 25° C., 60% RH, Month 6",White solid
same,Crystalline form,"[1]; 25° C., 60% RH, Month 6",Not changed
same,Main peak purity (%),"[1]; 25° C., 60% RH, Month 6",96.981%
same,Chiral purity (%),"[1]; 40° C., 75% RH, Day 7",99.295%
same,Color and appearance,"[1]; 40° C., 75% RH, Day 7",White solid
same,Crystalline form,"[1]; 40° C., 75% RH, Day 7",Not changed
same,Main peak purity (%),"[1]; 40° C., 75% RH, Day 7",97.661%
same,Chiral purity (%),"[1]; 40° C., 75% RH, Day 14",99.174%
same,Color and appearance,"[1]; 40° C., 75% RH, Day 14",White solid
same,Crystalline form,"[1]; 40° C., 75% RH, Day 14",Not changed
same,Main peak purity (%),"[1]; 40° C., 75% RH, Day 14",97.660%
same,Bromide ion content (%),"[1]; 40° C., 75% RH, Month 1",11.49%
same,Chiral purity (%),"[1]; 40° C., 75% RH, Month 1",99.262%
same,Color and appearance,"[1]; 40° C., 75% RH, Month 1",White solid
same,Crystalline form,"[1]; 40° C., 75% RH, Month 1",Not changed
same,Main peak purity (%),"[1]; 40° C., 75% RH, Month 1",97.558%
same,Bromide ion content (%),"[1]; 40° C., 75% RH, Month 2",10.93%
same,Chiral purity (%),"[1]; 40° C., 75% RH, Month 2",99.328%
same,Color and appearance,"[1]; 40° C., 75% RH, Month 2",White solid
same,Crystalline form,"[1]; 40° C., 75% RH, Month 2",Not changed
same,Main peak purity (%),"[1]; 40° C., 75% RH, Month 2",97.561%
same,Chiral purity (%),"[1]; 40° C., 75% RH, Month 3",99.275%
same,Color and appearance,"[1]; 40° C., 75% RH, Month 3",White solid
same,Crystalline form,"[1]; 40° C., 75% RH, Month 3",Not changed
same,Main peak purity (%),"[1]; 40° C., 75% RH, Month 3",97.259%
same,Bromide ion content (%),"[1]; 40° C., 75% RH, Month 6",11.91%
same,Chiral purity (%),"[1]; 40° C., 75% RH, Month 6",99.199%
same,Color and appearance,"[1]; 40° C., 75% RH, Month 6",White solid
same,Crystalline form,"[1]; 40° C., 75% RH, Month 6",Not changed
same,Main peak purity (%),"[1]; 40° C., 75% RH, Month 6",96.412%
same,Bromide ion content (%),"[1]; Initial, 0",11.75%
same,Chiral purity (%),"[1]; Initial, 0",99.298%
same,Color and appearance,"[1]; Initial, 0",White solid
same,Crystalline form,"[1]; Initial, 0",Crystalline
same,Main peak purity (%),"[1]; Initial, 0",97.689%
same,Stability (conclusion of long-term/accelerated study),"[1]; long term and acceleration, 6 months",good physical and chemical stability
same,Crystalline form before and after DVS (XRPD comparison),[2]; 0-95% humidity change,crystalline form did not change during DVS
same,DVS weight change,"[2]; 25° C., 20.0% RH to 80.0% RH",0.636%
same,Hygroscopicity,"[2]; DVS, 25° C., 20.0% RH to 80.0% RH",slightly hygroscopic
same,Vapor sorption,"[2]; accelerated test condition, 70% humidity",about 0.702%
same,Vapor sorption,"[2]; extreme condition, 90% humidity",about 1.094%
same,Vapor sorption,"[2]; normal storage condition, 60% humidity/25° C.",about 0.589%
same,Chiral purity (%),"[3]; 40° C., 7 days",99.293%
same,Color and appearance,"[3]; 40° C., 7 days",White solid
same,Crystalline form,"[3]; 40° C., 7 days",Not changed
same,Main peak purity (%),"[3]; 40° C., 7 days",97.716%
same,Chiral purity (%),"[3]; 40° C., 14 days",99.165%
same,Color and appearance,"[3]; 40° C., 14 days",White solid
same,Crystalline form,"[3]; 40° C., 14 days",Not changed
same,Main peak purity (%),"[3]; 40° C., 14 days",97.727%
same,Bromide ion content (%),"[3]; 40° C., 30 days",11.73%
same,Chiral purity (%),"[3]; 40° C., 30 days",99.251%
same,Color and appearance,"[3]; 40° C., 30 days",White solid
same,Crystalline form,"[3]; 40° C., 30 days",Not changed
same,Main peak purity (%),"[3]; 40° C., 30 days",97.644%
same,Chiral purity (%),"[3]; 60° C., 7 days",99.299%
same,Color and appearance,"[3]; 60° C., 7 days",White solid
same,Crystalline form,"[3]; 60° C., 7 days",Not changed
same,Main peak purity (%),"[3]; 60° C., 7 days",97.645%
same,Chiral purity (%),"[3]; 60° C., 14 days",99.187%
same,Color and appearance,"[3]; 60° C., 14 days",White solid
same,Crystalline form,"[3]; 60° C., 14 days",Not changed
same,Main peak purity (%),"[3]; 60° C., 14 days",97.671%
same,Bromide ion content (%),"[3]; 60° C., 30 days",11.50%
same,Chiral purity (%),"[3]; 60° C., 30 days",99.263%
same,Color and appearance,"[3]; 60° C., 30 days",White solid
same,Crystalline form,"[3]; 60° C., 30 days",Not changed
same,Main peak purity (%),"[3]; 60° C., 30 days",97.630%
same,Chiral purity (%),"[3]; 75% RH, 7 days",99.293%
same,Color and appearance,"[3]; 75% RH, 7 days",White solid
same,Crystalline form,"[3]; 75% RH, 7 days",Not changed
same,Main peak purity (%),"[3]; 75% RH, 7 days",97.687%
same,Chiral purity (%),"[3]; 75% RH, 14 days",99.179%
same,Color and appearance,"[3]; 75% RH, 14 days",White solid
same,Crystalline form,"[3]; 75% RH, 14 days",Not changed
same,Main peak purity (%),"[3]; 75% RH, 14 days",97.705%
same,Bromide ion content (%),"[3]; 75% RH, 30 days",11.73%
same,Chiral purity (%),"[3]; 75% RH, 30 days",99.274%
same,Color and appearance,"[3]; 75% RH, 30 days",White solid
same,Crystalline form,"[3]; 75% RH, 30 days",Not changed
same,Main peak purity (%),"[3]; 75% RH, 30 days",97.676%
same,Chiral purity (%),"[3]; 92.5% RH, 7 days",99.294%
same,Color and appearance,"[3]; 92.5% RH, 7 days",White solid
same,Crystalline form,"[3]; 92.5% RH, 7 days",Not changed
same,Main peak purity (%),"[3]; 92.5% RH, 7 days",97.706%
same,Chiral purity (%),"[3]; 92.5% RH, 14 days",99.175%
same,Color and appearance,"[3]; 92.5% RH, 14 days",White solid
same,Crystalline form,"[3]; 92.5% RH, 14 days",Not changed
same,Main peak purity (%),"[3]; 92.5% RH, 14 days",97.701%
same,Bromide ion content (%),"[3]; 92.5% RH, 30 days",11.55%
same,Chiral purity (%),"[3]; 92.5% RH, 30 days",99.268%
same,Color and appearance,"[3]; 92.5% RH, 30 days",White solid
same,Crystalline form,"[3]; 92.5% RH, 30 days",Not changed
same,Main peak purity (%),"[3]; 92.5% RH, 30 days",97.653%
same,Chiral purity (%),"[3]; 4500 Lux, 7 days",99.297%
same,Color and appearance,"[3]; 4500 Lux, 7 days",White solid
same,Crystalline form,"[3]; 4500 Lux, 7 days",Not changed
same,Main peak purity (%),"[3]; 4500 Lux, 7 days",97.683%
same,Chiral purity (%),"[3]; 4500 Lux, 14 days",99.152%
same,Color and appearance,"[3]; 4500 Lux, 14 days",White solid
same,Crystalline form,"[3]; 4500 Lux, 14 days",Not changed
same,Main peak purity (%),"[3]; 4500 Lux, 14 days",97.660%
same,Bromide ion content (%),"[3]; 4500 Lux, 30 days",11.18%
same,Chiral purity (%),"[3]; 4500 Lux, 30 days",99.243%
same,Color and appearance,"[3]; 4500 Lux, 30 days",White solid
same,Crystalline form,"[3]; 4500 Lux, 30 days",Not changed
same,Main peak purity (%),"[3]; 4500 Lux, 30 days",97.626%
same,Bromide ion content (%),"[3]; Initial, 0 days",11.75%
same,Chiral purity (%),"[3]; Initial, 0 days",99.298%
same,Color and appearance,"[3]; Initial, 0 days",White solid
same,Crystalline form,"[3]; Initial, 0 days",Crystalline
same,Main peak purity (%),"[3]; Initial, 0 days",97.689%
same,Stability (conclusion of influencing factor study),"[3]; illumination, 40° C. and 60° C., high humidities of 75% and 92.5%",good physical and chemical stabilities
